The subject of experiment [1] is YAP nuclear translocation in HaCaT cells. Description: YAP Translocation Assay (HaCaT Cells). Type of experiment: cell-based, human. To be noted: Homo sapiens, 24 hours. In a few lines:
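HaCaT cells (20,000/well) in DMEM + 10% FBS were plated overnight at 37° C, then exposed to compound for 24 h at 37° C. Cells were fixed with PFA, permeabilized with 0.1% Triton/1.5% BSA and imaged by high-content imaging.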

The next experiment has as its target LATS1 (Homo sapiens (Human), UniProt O95835). Description: LATS1 biochemical assay (Table 1A, Compound Examples 1-290; method in the earlier part).
For experiment [2], the target named is Human LATS2 kinase domain protein (Homo sapiens (Human), UniProt Q9NRM7). Nature of the experiment: LATS2 Biochemical Caliper Assay (Compound Examples 1-290). Particulars: 400 micromolar ATP. As to the method:
Human LATS2 kinase domain protein was purchased from Carnabio (catalogue number 01-124), which harbors the catalytic domain of amino acids 553-1088, and was co-purified with human His-tagged MOBKL1A (NP_775-739). 5 microlitre of enzyme buffer, 100 nL of compounds and 5 microlitre of localising aid buffer were added into 384-well plates. […] The plates were incubated at 25° C. for 3 hours. 40 microlitre of stop buffer with 25 mM EDTA (NanoSyn) was added to each well to terminate the reaction. Localising aids and products were separated electrophoretically using the microfluidic-based Caliper Labchip 3000 Drug Discovery System (Caliper Life Sciences). Plates were read using blue laser excitation and green fluorescence detection and quantified by fluorescence intensity.

Experiment [3] concerns Phospho-YAP (SER127) in HaCaT cells. Nature of the experiment: pYAP HTRF Assay (HaCaT Cells). To be noted: Homo sapiens, 2 hours. Type of experiment: cell-based, human. In a few lines:
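HaCaT cells at 5500 cells/well were cultured 48 hours at 37° C, then treated with compound for 2 hours. Phospho-YAP (Ser127) was detected by HTRF after an overnight (20 hrs) room-temperature incubation, read as the 665 nm/620 nm ratio.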
Background: Time-resolved FRET reads energy transfer from a long-lived donor to a nearby acceptor.

Experiment [4] relates to Phospho-YAP (Ser127) in JHH-5 cells. Description: pYAP HTRF Assay (JHH-5 cells). Type of experiment: cell-based. To be noted: 2 hours. Put shortly: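 JHH-5 cells (24000/well) cultured 24 h at 37 °C in William's E with 10% FBS, then exposed to compounds for 2 h at 37 °C. After lysis, pYAP d2/cryptate antibodies incubated 18 h at room temperature; HTRF ratio 665/620 nm ×10000.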

The subject of experiment [5] is human corneal endothelial cells (CECs). Nature of the experiment: Human corneal endothelial cell population expansion: fold cell expansion. Type of experiment: cell-based. To be noted: 10 micromolar compound, X-VIVO15 medium, 10 days, ratio of expanded to seeded cells. As to the method:
(§1) Cells were cultured at 37° C. in 5% CO2.
(§2) For each compound, two sets of cultures were generated. A first set of cultures was fixed in 4% PFA for 20 minutes at room temperature after cells isolated from the cornea had attached to the cell culture dish (typically 24 h after cell plating). A second set of cultures was fixed in 4% PFA for 20 minutes at room temperature 10 days after the first one.
(§3) To measure cell density in all fixed cultures, the number of nuclei stained with Sytox Orange (ThermoFisher) were counted per surface area as follows: fixed cell cultures fixed were permeabilized in a solution of 0.3% Triton X-100 (Sigma-Aldrich). Cells were then labeled in a solution of 0.5 micromolar of Sytox Orange in PBS for 5 minutes at room temperature. Nuclei were counted under a Zeiss epifluorescence microscope. The expansion factor was then determined by calculating the ratio of the expanded population of cells to population of seeded cells.

The test system is the same in experiment [6]. Description: Human corneal endothelial cell population expansion: endothelial cell density in vitro. Type of experiment: cell-based. To be noted: 10 micromolar compound, X-VIVO15 medium, 10 days. As to the method: as §1, §2, §3
In experiment [7] the target is Human LATS1 kinase domain protein (Homo sapiens (Human), UniProt O95835). Nature of the experiment: LATS1 Biochemical Caliper Assay (Compound Examples 291-335). Particulars: Caliper EZ Reader. As for the experimental part: The LATS1 biochemical Caliper assay was performed as following.
Sequence of Human LATS1 kinase domain protein (O95835 whole entry, looked up, the tested form may be a part): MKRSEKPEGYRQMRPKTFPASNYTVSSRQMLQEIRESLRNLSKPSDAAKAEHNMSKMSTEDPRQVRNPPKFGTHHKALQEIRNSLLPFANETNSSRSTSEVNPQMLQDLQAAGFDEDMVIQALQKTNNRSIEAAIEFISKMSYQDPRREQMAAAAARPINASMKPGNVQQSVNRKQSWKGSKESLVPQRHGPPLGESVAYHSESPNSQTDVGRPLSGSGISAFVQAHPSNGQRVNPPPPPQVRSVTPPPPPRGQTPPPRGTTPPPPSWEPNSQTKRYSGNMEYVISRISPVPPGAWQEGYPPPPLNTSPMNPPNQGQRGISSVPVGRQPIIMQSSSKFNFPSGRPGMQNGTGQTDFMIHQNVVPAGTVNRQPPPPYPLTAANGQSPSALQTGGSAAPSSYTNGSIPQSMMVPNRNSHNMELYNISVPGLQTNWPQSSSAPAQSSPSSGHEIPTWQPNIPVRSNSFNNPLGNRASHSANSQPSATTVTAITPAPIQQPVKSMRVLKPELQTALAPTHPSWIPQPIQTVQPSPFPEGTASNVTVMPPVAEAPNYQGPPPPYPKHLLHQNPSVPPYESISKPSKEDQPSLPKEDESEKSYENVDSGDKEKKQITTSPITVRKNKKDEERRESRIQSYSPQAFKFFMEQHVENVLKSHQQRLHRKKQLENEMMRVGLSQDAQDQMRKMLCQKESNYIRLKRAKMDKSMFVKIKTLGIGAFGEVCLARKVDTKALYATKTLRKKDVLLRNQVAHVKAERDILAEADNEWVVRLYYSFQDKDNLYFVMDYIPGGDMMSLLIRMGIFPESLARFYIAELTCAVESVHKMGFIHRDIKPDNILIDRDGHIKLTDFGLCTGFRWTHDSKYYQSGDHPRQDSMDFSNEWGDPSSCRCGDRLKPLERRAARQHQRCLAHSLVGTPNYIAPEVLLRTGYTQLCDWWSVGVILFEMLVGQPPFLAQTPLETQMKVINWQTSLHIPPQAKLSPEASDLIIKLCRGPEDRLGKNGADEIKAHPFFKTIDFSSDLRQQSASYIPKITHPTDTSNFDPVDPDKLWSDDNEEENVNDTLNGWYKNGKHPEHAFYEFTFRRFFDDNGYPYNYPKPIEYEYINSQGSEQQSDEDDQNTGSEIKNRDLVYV
Sequence of Human LATS1 kinase domain protein (Q7L9L4 whole entry partner, looked up, the tested form may be a part): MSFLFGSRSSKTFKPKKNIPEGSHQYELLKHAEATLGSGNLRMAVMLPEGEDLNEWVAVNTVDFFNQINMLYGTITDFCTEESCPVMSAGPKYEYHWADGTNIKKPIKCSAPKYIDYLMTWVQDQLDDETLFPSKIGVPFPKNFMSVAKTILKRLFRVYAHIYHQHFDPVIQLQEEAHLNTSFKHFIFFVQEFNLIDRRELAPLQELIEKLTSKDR
Human LATS1 kinase domain protein was purchased from Carnabio (catalogue number 01-123; lot 15CBS-0098D). Human LATS1, catalytic domain [589-1130(end) amino acids of accession number NP_004681.1] was co-expressed as N-terminal GST-fusion protein (90 kDa) with human His-tagged MOBKL1A [1-216(end) amino acids of accession number NP_775739.1] using baculovirus expression system. GST-LATS1 was purified by using glutathione sepharose chromatography. The substrate (Fluo-SGKtide; Peptide for LATS1; lot BS-41067) has the following sequence: 5-Fluo-Nva-[…]-amide (SEQ ID NO: 27) x TFA and was purchased from Biosyntan.
The reaction is performed in reaction buffer containing 50 mM Hepes pH 7,5; 0.02% Tween20; 0.02% BSA; 1 mM DTT; 10 uM Na3VO4 and 10 mM beta-Glycerolphosphat and fresh added 1 mM MgCl2 and qsp H2O.
The substrate solution (2× conc.) in Reaction Buffer contains 300 μM ATP and 4 μM Fluo-SGKtide.
The kinase solution (2× conc.) in Reaction Buffer contains 20 nM LATS1 kinase. 4.5 μL of 2× conc. Kinase solution, 50 nL of 1.8 mM compounds and 4.5 μL of substrate solution were added into 384-well plates black small volume from Greiner and incubated at 32° C. for 1 hour. 15 μL of stop buffer containing 100 mM Hepes pH 7,5; 5% DMSO; 0.1% Coating reagent; 10 mM EDTA and 0.02% Brij35 and qsp H2O to each well to terminate the reaction.
Substrates and products were electrophoretically separated using the microfluidic-based Caliper EZ Reader System (Caliper Life Sciences) using a 12 sipper chip (cat 760404). The separation takes place in Coating Buffer (idem Stop buffer) and containing 0.1% Coating reagent CR3 and 0.5% coating reagent CR8 (Perkin Elmer).
Plates were read using a LED with an excitation at 488 nm and a detection at 520 nm to 5 quantify the fluorescence intensity.

Each structure is given as a SMILES string. A value given as a limit tells only on which side of the number the result lay.

Usually EC50 stands for the concentration that produces a half-maximal response. One may read the IC50 as the midpoint of a concentration-inhibition curve. A lower IC50 goes with higher potency.

Sequence of Human LATS2 kinase domain protein (Q9NRM7 553-1088): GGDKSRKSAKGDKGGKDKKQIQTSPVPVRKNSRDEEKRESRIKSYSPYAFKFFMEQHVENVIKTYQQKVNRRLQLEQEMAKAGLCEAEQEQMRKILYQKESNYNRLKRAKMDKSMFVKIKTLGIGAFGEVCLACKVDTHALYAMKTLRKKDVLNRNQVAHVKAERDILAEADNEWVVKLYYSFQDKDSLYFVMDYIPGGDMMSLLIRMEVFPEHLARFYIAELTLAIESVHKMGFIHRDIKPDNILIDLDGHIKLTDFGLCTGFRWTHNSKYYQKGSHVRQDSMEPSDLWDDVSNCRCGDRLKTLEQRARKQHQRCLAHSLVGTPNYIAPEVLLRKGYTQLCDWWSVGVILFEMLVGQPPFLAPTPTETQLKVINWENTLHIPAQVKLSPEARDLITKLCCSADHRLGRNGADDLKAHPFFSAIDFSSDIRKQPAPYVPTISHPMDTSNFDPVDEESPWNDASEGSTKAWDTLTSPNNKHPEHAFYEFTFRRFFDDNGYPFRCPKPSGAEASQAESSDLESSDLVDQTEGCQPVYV
Sequence of Human LATS2 kinase domain protein (Q7L9L4 whole entry partner, the tested form may be a part): as the sequence (Q7L9L4 whole entry partner, looked up, the tested form may be a part) above
Sequence of LATS1 (O95835 whole entry, looked up, the tested form may be a part): as the sequence (O95835 whole entry, looked up, the tested form may be a part) above
Sequence of LATS1 (Q7L9L4 whole entry partner, looked up, the tested form may be a part): as the sequence (Q7L9L4 whole entry partner, looked up, the tested form may be a part) above

The compound `Cn1nccc1-c1nc(NC2(C)CCC2)c2ccncc2n1` [Example 186, 2-(1-methyl-1H-pyrazol-5-yl)-N-(1-methylcyclobutyl)pyrido[3,4-d]pyrimidin-4-amine] returned a concentration giving a half-maximal response (EC50) in experiment [1] greater than 20 µM. Also, the IC50 against LATS1 was determined as 0.009 µM; in experiment [2] it was 0.05 µM.

With `CC(C)(C)Nc1nc(-c2ccncc2)nc2cnccc12` [Example 59, N-tert-butyl-2-(pyridin-4-yl)pyrido[3,4-d]pyrimidin-4-amine], the concentration giving a half-maximal response (EC50) in experiment [1] came out at 0.341 µM. The IC50 against LATS1 worked out at 0.001 µM; in experiment [3], 0.019 µM; in experiment [2] it was 0.004 µM; in experiment [4], 1.1 µM.

Turning to `CC(C)N(C)c1nc(-c2ccncc2)nc2cnccc12` [Example 5, N-methyl-N-(propan-2-yl)-2-(pyridin-4-yl)pyrido[3,4-d]pyrimidin-4-amine], in experiment [1], the EC50 was 2.48 µM. The “Expansion factor (Fold Cell expansion)” value in experiment [5] came to 408. Besides, the “Endothelial Cell density in vitro” value in experiment [6] is reported as 3911 cells/mm^2. For the same compound, the concentration for half-maximal inhibition (IC50) against LATS1 amounted to 0.002 µM; in experiment [3], 2.19 µM; in experiment [4], 2.3 µM.

`CN(CCC(C)(C)N)c1nc(-c2ccncc2)nc2cnccc12` [Example 315, N^1,3-dimethyl-N^1-(2-(pyridin-4-yl)pyrido[3,4-d]pyrimidin-4-yl)butane-1,3-diamine]: the IC50 in experiment [7] stood at 0.005 µM; in experiment [4], 5.7 µM.

Take `FC(F)(F)C1(Nc2cc(-c3ccncc3)nc3cnccc23)CCC1` [Example 294, 2-(pyridin-4-yl)-N-(1-(trifluoromethyl)cyclobutyl)-1,7-naphthyridin-4-amine]: the IC50 in experiment [7] came to 0.0045 µM; in experiment [4], 1.1 µM.

Regarding `CC(C)(CC(N)=O)Nc1nc(-c2ccncc2)nc2cnccc12` [Example 318, 3-methyl-3-((2-(pyridin-4-yl)pyrido[3,4-d]pyrimidin-4-yl)amino)butanamide], the results for the IC50 in experiment [7] and in experiment [4] were 0.0018 µM and 3.1 µM, respectively.

On to `CC1(Nc2cc(-c3ccncn3)nc3cnccc23)CCC1` [Example 307, N-(1-methylcyclobutyl)-2-(pyrimidin-4-yl)-1,7-naphthyridin-4-amine], for which the IC50 in experiment [7] stood at 0.0019 µM; in experiment [4] it was 1.3 µM.

In experiment [1], `CC(C)(COCCO)Nc1nc(-c2ccncc2)nc2cnccc12` [Example 11, 2-(2-methyl-2-{[2-(pyridin-4-yl)pyrido[3,4-d]pyrimidin-4-yl]amino}propoxy)ethan-1-ol] returned an EC50 of 1.43 µM. Besides, the IC50 against LATS1 was 0.003 µM; in experiment [3] it was 0.646 µM; in experiment [2] it was 0.012 µM.

`OCC1(Nc2nc(-c3ccncc3)nc3cnccc23)CCC1` [Example 101, (1-{[2-(pyridin-4-yl)pyrido[3,4-d]pyrimidin-4-yl]amino}cyclobutyl)methanol] gave an EC50 in experiment [1] greater than 20 µM. For the same compound, the IC50 at LATS1 was determined as 0.005 µM; in experiment [3], 5.4 µM; in experiment [2], 0.03 µM; in experiment [4] it was 3.3 µM.

Turning to `CC(C)(N)CNc1nc(-c2ccncc2)nc2cnccc12` [Example 312, 2-methyl-N^1-(2-(pyridin-4-yl)pyrido[3,4-d]pyrimidin-4-yl)propane-1,2-diamine], the figures for the 50% inhibitory concentration (IC50) in experiment [7] and in experiment [4] were 0.0024 µM and 7.7 µM, respectively.

For the compound `CC(Nc1nc(-c2ccncc2)nc2cnccc12)C(F)(F)F` (stereo not drawn) [Example 4, 2-(pyridin-4-yl)-N-(1,1,1-trifluoropropan-2-yl)pyrido[3,4-d]pyrimidin-4-amine], in experiment [1], the EC50 came to 2.53 µM. Moreover, the 50% inhibitory concentration (IC50) is 0.001 µM against LATS1, 1.15 µM in experiment [3], 0.001 µM in experiment [2] and greater than 10 µM in experiment [4].

With `CN(C)CCC(C)(C)Nc1nc(-c2ccncn2)nc2cnccc12` [Example 308, N^1,N^1,3-trimethyl-N^3-(2-(pyrimidin-4-yl)pyrido[3,4-d]pyrimidin-4-yl)butane-1,3-diamine], the IC50 is 0.0687 µM in experiment [7] and greater than 10 µM in experiment [4].

For `CC(C)(N)C(C)(C)Nc1nc(-c2ccncc2)nc2cnccc12` [Example 320, 2,3-dimethyl-N^2-(2-(pyridin-4-yl)pyrido[3,4-d]pyrimidin-4-yl)butane-2,3-diamine], the figures for the IC50 in experiment [7] and in experiment [4] were 0.0007 µM and 1 µM, respectively.

With `CC(CN)CNc1cc(-c2ccncc2)nc2cnccc12` (stereo not drawn) [Example 304, 2-methyl-N^1-(2-(pyridin-4-yl)-1,7-naphthyridin-4-yl)propane-1,3-diamine], the IC50 in experiment [7] is 0.0096 µM; in experiment [4], greater than 10 µM.

Consider `CC1(Nc2cc(-c3ccncc3)nc3cnccc23)CC1` [Example 297, N-(1-methylcycloropyl)-2-(pyridin-4-yl)-1,7-naphthyridin-4-amine], for which the IC50 in experiment [7] is 0.0075 µM; in experiment [4], greater than 10 µM.

For the compound `CC1(Nc2cc(-c3ccncc3)nc3cnccc23)CCC1` [Example 300, N-(1-methylcyclobutyl)-2-(pyridin-4-yl)-1,7-naphthyridin-4-amine], the values for the IC50 in experiment [7] and in experiment [4] were 0.0012 µM and 0.9 µM, respectively.

The values are drawn from patent US11458138B2 (Novartis AG, priority 2017, dated 2022).
